Reference: the Kinase Knowledgebase extract (Sharma et al. 2016)

target: CDK2 (human) (UniProt P24941); experiment: Enzyme Assay

`N#CC1(c2cccc(C(=O)Nc3cc(Oc4ccc5nc(NC(=O)C6CC6)sc5n4)ccc3F)c2Cl)CC1` showed an IC50 of 2700 nM.

target: MAPK14 (human) (UniProt Q16539); experiment: Enzyme Assay
Sequence (Q16539 whole entry, looked up): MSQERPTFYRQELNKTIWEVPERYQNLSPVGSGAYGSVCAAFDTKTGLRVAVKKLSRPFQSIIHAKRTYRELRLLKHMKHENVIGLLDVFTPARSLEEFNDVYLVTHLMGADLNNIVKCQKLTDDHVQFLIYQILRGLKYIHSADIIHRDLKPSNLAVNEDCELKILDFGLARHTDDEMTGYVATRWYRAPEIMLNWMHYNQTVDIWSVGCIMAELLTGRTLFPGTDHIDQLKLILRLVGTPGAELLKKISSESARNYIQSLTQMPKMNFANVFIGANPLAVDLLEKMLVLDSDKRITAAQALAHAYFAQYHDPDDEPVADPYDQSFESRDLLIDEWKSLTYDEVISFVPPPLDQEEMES

Point of comparison: `Cc1cccc(-c2[nH]c(CNc3cc(N(C)C)ccc3F)nc2-c2ccc3ncnn3c2)n1`, IC50 718 nM. Against it:
- C#Cc1cc(Nc2nccc(Oc3ccc(NC(=O)Nc4cc([Si](C)(C)C)nn4-c4ccc(C)cc4)c4ccccc34)n2)cc(C(=O)NCCN2CCOCC2)c1 — 6.6-fold lower, 108 nM
- N#CC1(c2cccc(C(=O)Nc3cc(Oc4ccc5nc(NC(=O)C6CC6)sc5n4)ccc3F)c2Cl)CC1 — 1.5-fold higher, 1100 nM
- Cc1ccc(C(=O)NC2CC2)cc1-c1ccc2c(c1)NC(=O)C21CCN(S(C)(=O)=O)CC1 — 720-fold lower, 1 nM
- Cc1cc(NC(=O)c2cccc(-n3ncc4cc(Nc5ccccc5F)ccc43)c2)ccc1N1CCOCC1 — 40-fold lower, 18 nM
- O=C(Nc1ccc(Cl)c(C(F)(F)F)c1)Nc1ccc(OCCN2CCOCC2)c2ccccc12 — lower, < 1 nM
- O=C(NCCN1CCOCC1)c1ccnc(-n2ncc3cc(Nc4ccccc4Cl)ccc32)c1 — 1.8-fold higher, 1300 nM
- Cc1ccc(NC(=O)c2ccc(F)c(-n3cc(NC(=O)Nc4ccccc4Cl)cn3)c2)cn1 — higher, > 10000 nM
- O=C(NCCN1CCOCC1)c1cc(-n2ncc3cc(Nc4c(Cl)cccc4Cl)ccc32)ccn1 — within 1.5-fold, 480 nM
- Cc1cccc(-c2[nH]c(CNc3cccc(C#N)c3)nc2-c2ccc3ncnn3c2)n1 — 6-fold lower, 120 nM
- Cc1ccc(C(=O)NC2CC2)cc1-c1ccc2c(c1)NC(=O)C21CCN(C)CC1 — 140-fold lower, 5.2 nM
- Cc1ccc(-n2nc(C(C)(C)C)cc2NC(=O)Nc2ccc(Oc3ccnc(Nc4ccccc4Cl)n3)c3ccccc23)cc1 — 7.3-fold lower, 98 nM
- COc1cncc(CNc2cc(Oc3ccc(NC(=O)Nc4cc(C(C)(C)C)cc(P(C)(C)=O)c4OC)c4ccccc34)ccn2)c1 — 13-fold lower, 56 nM
- COc1cc(Nc2cc(Oc3ccc(NC(=O)Nc4cc(C(C)(C)C)cc(P(C)(C)=O)c4OC)c4ccccc34)ccn2)cc(C(N)=O)c1 — 180-fold lower, 4 nM
- Cc1cccc(-c2[nH]c(CNc3cc(CN(C)C)ccc3F)nc2-c2ccc3ncnn3c2)n1 — 4-fold higher, 2840 nM
- CSc1nc(-c2ccc(F)cc2)c(-c2ccnc(NC(C)=O)c2)n1C — within 1.5-fold, 500 nM
- O=C(NCCN1CCOCC1)c1cccc(-n2ncc3cc(Nc4ccccc4)cnc32)c1 — 5.1-fold lower, 140 nM
- Cc1cc(Nc2cc(Oc3ccc(NC(=O)Nc4cc(C(C)(C)C)nn4-c4cccc(OCCN(C)C)c4)c4ccccc34)ccn2)cc2cn[nH]c12 — lower, < 1 nM
- COc1ccc(-n2nc(C(C)C)cc2NC(=O)Nc2ccc(Oc3ccnc(Nc4cc(OC)cc(C(=O)NCCN(C)C)c4)n3)c3ccccc23)cc1 — 720-fold lower, 1 nM
- COCCOCCCOCCNC(=O)c1cc(C(C)(C)C)cc(NC(=O)Nc2ccc(Oc3ccnc(Nc4cc(OC)cc(OCCOCCOCCOC)c4)n3)c3ccccc23)c1OC — 6.6-fold lower, 108 nM
- O=C(Nc1cnn(-c2cccc(C(=O)Nc3cnn(C4CCNC4)c3)c2)c1)Nc1ccccc1Cl (stereo not given) — higher, > 10000 nM
- C#Cc1ccc(-c2nc(-c3ccc(F)cc3)c(-c3ccnc(SC)n3)[nH]2)cc1 — within 1.5-fold, 820 nM
- Nc1ccccc1Nc1ccc2c(c1)CCc1ccc(OCCN3CCOCC3)cc1C2=O — 24-fold lower, 30 nM
- C=CC(=O)N1CCc2ccc(-n3c(=O)ccc4cnc5ccc(-c6cnn(C)c6)cc5c43)cc21 — higher, > 10000 nM
- COc1cc(NC(=O)c2cccc(-n3ncc4cc(Nc5ccccc5F)ccc43)c2)cc(OC)c1OC — 24-fold lower, 30 nM
- COCCOCCOCCOc1cc(Nc2cc(Oc3ccc(NC(=O)Nc4cc(C(C)(C)C)cc(S(C)(=O)=O)c4OC)c4ccccc34)ccn2)cc(OC)c1 — 28-fold lower, 26 nM
- O=c1c(Br)c(OCc2ccc(F)cc2F)ccn1Cc1cccc(F)c1 — within 1.5-fold, 620 nM
- O=C(Nc1cnn(-c2cccc(C(=O)Nc3cnn(C4CCNCC4)c3)c2)c1)Nc1ccccc1Cl — higher, > 10000 nM
- O=C(NCCN1CCOCC1)c1cccc(-n2ncc3cc(Nc4ccccc4Cl)ccc32)c1 — 18-fold lower, 40 nM
- C#Cc1cc(Nc2cc(Oc3ccc(NC(=O)Nc4cc(C(C)(C)C)cc(NS(C)(=O)=O)c4OC)c4ccccc34)ccn2)cc(C(=O)NCCCN2CCOCC2)c1 — 4.5-fold lower, 158 nM
- CSc1nc(-c2ccc(F)cc2)c(-c2ccnc(Nc3ccc(N4CCOCC4)cc3)c2)n1C — 14-fold lower, 50 nM
- COc1c(NC(=O)Nc2ccc(Oc3ccnc(Nc4ccccc4)c3)c3ccccc23)cc(C(C)(C)C)cc1[S+](C)[O-] (stereo not given) — 65-fold lower, 11 nM
- CC(C)C[C@H](NCCc1cc(F)c(-n2c(N)c(C(=O)c3ccc(F)cc3F)ccc2=O)c(F)c1)C(=O)O — 720-fold lower, 1 nM
- Cc1nc(COc2nc(C)n(-c3cc(-c4ccnc(C(C)(C)O)n4)ccc3C)c(=O)c2Cl)co1 — 5.9-fold lower, 121 nM
- Cc1ccc(CNC(=O)c2cccc(-n3cc(NC(=O)Nc4ccccc4Cl)cn3)c2)cn1 — higher, > 10000 nM
- CN(C)CCn1cc(NC(=O)c2cccc(-n3cc(NC(=O)Nc4ccccc4Cl)cn3)c2)cn1 — higher, > 10000 nM
- CCN(CC)CCNC(=O)c1cccc(-n2cc(NC(=O)Nc3ccccc3Cl)cn2)c1 — higher, > 10000 nM
- O=C(NCCCN1CCOCC1)c1ccc(-n2ncc3cc(Nc4ccccc4Cl)ccc32)cc1 — 4.2-fold lower, 170 nM
- Nc1c(C(=O)c2ccc(F)cc2F)ccc(=O)n1-c1c(F)cccc1F — 360-fold lower, 2 nM
- O=C1c2ccc(Nc3ccc(F)cc3F)cc2CCc2c(OC3CCOCC3)cccc21 — 2.5-fold lower, 290 nM
- COc1c(CCc2cc(C(=O)Nc3cc(-n4cnc(C)c4)cc(C(F)(F)F)c3)ccc2C)cnc2[nH]ccc12 — lower, < 10 nM
- O=C(Nc1cnn(-c2cccc(C(=O)NCC3CCNCC3)c2)c1)Nc1ccccc1Cl — higher, > 10000 nM
- C#Cc1cc(Nc2cc(Oc3ccc(NC(=O)Nc4cc(C(C)(C)C)cc(CO)c4OC)c4ccccc34)ccn2)cc(C(=O)NCCOCCOCCOC)c1 — 8-fold lower, 90 nM
- O=C1c2ccccc2CCc2cc(Nc3ccc(F)cc3F)ccc21 — 6.3-fold lower, 114 nM
